Measured values as given in patent US20230346883A1, “COMPOSITIONS FOR AND METHODS OF TREATMENT WITH MUTANT A1 ADENOSINE RECEPTOR PLASMID cDNAs” (Endacea, Inc., priority 2022, published 2023).

Test system: PC3 Tumors (Human Prostate Carcinoma)
Experiment: Treatment of PC3 xenograft tumors in athymic nude mice, tumor volume
Assay type: in vivo
Conditions: dosed twice/week
Description: • 1. Animals: • 46 Athymic nude mice (ENVIGO, male, 5-6 weeks old, R #: 4269, PO #: 236172) were used in this study. All mice were ear tagged for identification purposes. • 2. Animal Husbandry: • Upon arrival, animals were examined to ensure that they were healthy. The animals were housed in autoclaved solid floor polycarbonate cages. Housing and sanitation were performed. All animal handling was performed in a laminar flow hood. Animals were housed in filter-topped cages within a HEPA filtered clean room. • 3. Cell Culture and Implantation: • PC3 cell line was obtained from American Type Culture Collection (Manassas, VA). The cells were cultured in 75 cm^2 flask containing Eagle's Minimum Essential Medium supplemented with 10% fetal bovine calf serum (FBS) and incubated at 37° C. in humidified atmosphere of 5% CO2. As cells became 80% confluent, cultures were expanded to 150 cm^2 flasks, and expanded further until sufficient cells were available for injection. • Cancer cells were subcutaneously injected into right flank, 10 million cells/each mouse for PC3 cells. • 4. Assignment to Treatment Groups: • The animals were ear tagged for identification purposes. The animals were assigned to 4 study groups with 10 mice in each group based upon tumor volume. • 5. The mice were dosed twice a week for 6 weeks.
The Paclitaxel was stored at ambient temperature. Lipid nanoparticle (LNP) suspensions were stored at 4° C. Unopened vials were maintained in their original container at 4° C. until ready for use. 50 μl of LNP treatment was drawn via large bore needle (16G needle) from vial. All LNP treatments were allowed to reach room temperature by standing at ambient temperature. There was no heating. The large bore needle was replaced with a small-bore needle (25G) for tumor injection. • 6. Tumor Monitoring: • The xenograft tumors were measured three times a week with a digital caliper. • Tumor volumes were calculated using the formula:
Tumor Volume=length×width×width×½ • 7. Statistical Analysis: • Tumor sizes and body weights were analyzed using Student's t-test. P values <0.05 were considered as statistically significant.

CC(=O)O[C@H]1C(=O)[C@@]2(C)[C@H]([C@H](OC(=O)c3ccccc3)[C@]3(O)C[C@H](OC(=O)[C@H](O)[C@@H](NC(=O)c4ccccc4)c4ccccc4)C(C)=C1C3(C)C)[C@]1(OC(C)=O)CO[C@@H]1C[C@@H]2O [Paclitaxel]
Average Tumor Volume (Mean) (therapy day 0): 108.0 Mm^3
Average Tumor Volume (Mean) (therapy day 3): 105.7 Mm^3
Average Tumor Volume (Mean) (therapy day 5): 111.7 Mm^3
Average Tumor Volume (Mean) (therapy day 7): 129.6 Mm^3
Average Tumor Volume (Mean) (therapy day 10): 108.4 Mm^3
Average Tumor Volume (Mean) (therapy day 12): 98.1 Mm^3
Average Tumor Volume (Mean) (therapy day 14): 84.2 Mm^3
Average Tumor Volume (Mean) (therapy day 17): 66.6 Mm^3
Average Tumor Volume (Mean) (therapy day 19): 61.8 Mm^3
Average Tumor Volume (Mean) (therapy day 21): 56.6 Mm^3
Average Tumor Volume (Mean) (therapy day 24): 48.7 Mm^3
Average Tumor Volume (Mean) (therapy day 26): 34.6 Mm^3
Average Tumor Volume (Mean) (therapy day 28): 31.1 Mm^3
Average Tumor Volume (Mean) (therapy day 31): 26.6 Mm^3
Average Tumor Volume (Mean) (therapy day 35): 25.3 Mm^3
Average Tumor Volume (Mean) (therapy day 38): 24.4 Mm^3
Average Tumor Volume (Mean) (therapy day 40): 24.2 Mm^3
Average Tumor Volume (Mean) (therapy day 42): 27.2 Mm^3
Average Tumor Volume (Mean) (therapy day 45): 17.8 Mm^3
